Experimental data: patent publication US20040138203A1, “Bicyclic lactams and sulfonamides with 5-ht1a -affinity and use thereof for preventing and treating cerebral ischaemia” (priority 2000, published 2004)

What follows are compounds tested against T1, cloned human 5-HT1A receptors (Homo sapiens, UniProt P08908) (assay: 5-HT1A binding assay using membranes from 5-HT1A receptor-expressing HEK293 cells (3H-8-OH-DPAT displacement)). Settings: 3H-8-OH-DPAT 0.15 nM, HEK293 cell membranes, 90 min at 22° C.
T1 construct: expressed in transfected cells; host or cells: HEK293 cells, kept under G-418 selection; membranes used
T1 sequence (P08908 1-422): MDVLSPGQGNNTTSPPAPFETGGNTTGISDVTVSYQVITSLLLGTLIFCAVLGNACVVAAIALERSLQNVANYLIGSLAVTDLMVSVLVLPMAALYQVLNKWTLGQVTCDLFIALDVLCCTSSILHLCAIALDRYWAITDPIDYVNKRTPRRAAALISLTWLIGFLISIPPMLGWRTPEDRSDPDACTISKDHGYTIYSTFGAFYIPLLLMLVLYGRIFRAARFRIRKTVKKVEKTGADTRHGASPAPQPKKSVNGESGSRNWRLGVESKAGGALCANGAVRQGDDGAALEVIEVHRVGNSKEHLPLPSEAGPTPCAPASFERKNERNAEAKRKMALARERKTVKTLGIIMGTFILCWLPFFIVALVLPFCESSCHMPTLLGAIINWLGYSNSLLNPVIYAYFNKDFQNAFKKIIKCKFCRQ
Procedure: The following test arrangement was used for determining the receptor binding affinity:
5-HT1A binding assay using membranes from 5-HT1A receptor-expressing HEK293 cells
Culturing 5-HT1A receptor-expressing HEK293 cells 5-HT1A-expressing HEK293 cells are cultured, at 37° C. and in a 5% CO2 atmosphere, in RPMI/Glutamax medium (RPMI 1640, 25 mM Hepes, 2 mM Glutamax, 10% FCS, 2 mM glutamine, penicillin/streptomycin (100 IU/ml each), geneticin G-418 sulfate, 400 mg/l, NaHCO3, 1.2 g/l) in culture flasks (T-175 triple flasks). After confluence has been reached, the medium is removed and the flasks are filled with 15 ml of sterile PBS (phosphate-buffered saline). The cells are detached by incubating them for 10 minutes (incubator, 37° C.) with a trypsin solution (0.05% trypsin, 0.0004% EDTA, 0.02% EGTA, 2.682 mM KCl, 1.47 mM KH2PO4, 6.46 mM NaHPO4, 136.89 mM NaCl). The detachment of the cells is promoted by knocking on the bottom of the flask. After having been transferred into 50 ml tubes (Greiner), the cells are centrifuged at 250×g at room temperature. The supernatant is discarded and the cells are resuspended in 10 ml of medium. The cells are aliquoted once again into culture flasks and cultured for a further 5 to 6 days until the membranes are prepared.
Preparing the Membranes from 5-HT1A Receptor-Expressing HEK293 Cells
The supernatants are removed from the cells and the culture flasks are filled with PBS. The cells are then incubated for 10 minutes with a trypsin solution (for composition see above). The detachment of the cells is promoted by knocking on the bottom of the flask. The cell suspension is removed and the remaining cells are likewise taken up in PBS by washing the culture flasks twice with PBS. The combined cell suspension is aliquoted into […] and centrifuged at 250×g and 4° C. for 10 minutes. The supernatants are discarded and the cells in the pellet are resuspended in PBS. 20 μl of the cell suspension are removed and the cell density is determined. The cells are centrifuged once again at 250×g (4° C.) for 10 minutes, after which the supernatant is discarded and the cells in the pellet are homogenized in 50 mM tris-HCl, pH 7.4 (1 ml/10^8 cells) using an Ultra-Turrax (30 sec).
The homogenate is aliquoted into cryotubes (1 ml/cryotube) and stored in liquid nitrogen until used in the binding assay.
The frozen membranes are thawed at 37° C., after which they are centrifuged at 48000*g (20 minutes) and then resuspended in binding buffer (50 mM Tris-HCl, pH 7.4, 5 mM CaCl2). An incubation assay mixture contains membrane material from […], 0.15 pmol (=0.15 nM) of 3H-8-OH-DPAT, and the substances to be tested, in a total of 1 ml of binding buffer. Nonspecific binding is determined in the presence of 10^−5 M 5-carboxamidotryptamine. Following a 90-minute incubation at 22° C., bound and free ligand are separated from each other by filtering through […] and subsequently washing with from 5 to 9 ml of ice-cold binding buffer. Before use, the GF/B filters are treated for at least 2 hours with 0.3% polyethylenimine. Following filtration, from 3 to 4 ml of Packard Ultima Gold XR are added to the filters and the radioactivity is determined by liquid scintillation counting in a Packard Tricarb.
Evaluating the Data from the 5-HT1A Binding Assay
The displacement curves are analyzed by nonlinear regression using a modified version of the “Ligand” program of Munson & Rodbard (Anal. Biochem., 107, 220 (1980)). The value of the theoretical nonspecific binding is assessed to be the theoretical binding of radioligand at infinitely high ligand concentration. In this connection, the measured values for the nonspecific binding are treated as data points of the displacement curve which correspond to experimental points at an infinitely high ligand concentration. […]

| SMILES | Ki [nM] |
| --- | --- |
| Cc1cccc(N2CCN(CCN3Cc4ccccc4C3=O)CC2)n1 [Example 4, 2-[2-(4-(6-Methyl-2-pyridinyl)-1-piperazinyl)-ethyl]-1-isoindolinone] | 2.6 |
| O=C1CCc2ccccc2N1CCN1CCN(c2nccc3ccccc23)CC1 [Example 6, 1-[2-(4-(1-Isoquinolinyl)-1-piperazinyl)-ethyl]-3,4-dihydro-2(1H)-quinolinone] | 4.1 |
| O=C1Cc2ccccc2N1CCN1CCN(c2cccc(C(F)(F)F)c2)CC1 [Example 5, 1-[2-(4-(3-Trifluoromethylphenyl)-1-piperazinyl)ethyl]-1,3-dihydro-2H-indol-2-one] | 2.9 |
| O=C1c2ccccc2CN1CCN1CCN(c2nccc3ccccc23)CC1 [Example 22, 2-[2-(4-(1-Isoquinolinyl)-1-piperazinyl)ethyl]-1-isoindolinone] | 5.4 |
| O=S1(=O)c2ccccc2CN1CCN1CCN(c2cccc(C(F)(F)F)c2)CC1 [Example 13, 2-[2-(4-(3-Trifluoromethylphenyl)-1-piperazinyl)ethyl]-2,3-dihydro-1,2-benzisothiazole 1,1-dioxide] | 1 |
| O=C1Cc2ccccc2N1CCN1CCN(c2nccc3ccccc23)CC1 [Example 19, 1-[2-(4-(1-Isoquinolinyl)-1-piperazinyl)ethyl]-1,3-dihydro-2H-indol-2-one] | 0.7 |

Other lines, results leading:

| Ki [nM] | SMILES |
| --- | --- |
| 0.5 | Cc1cccc(N2CCN(CCN3Cc4ccccc4S3(=O)=O)CC2)n1 [Example 10, 2-[2-(4-(6-Methyl-2-pyridinyl)-1-piperazinyl)ethyl]-2,3-dihydro-1,2-benzisothiazole 1,1-dioxide] |
| 0.6 | O=C1c2ccccc2CCN1CCN1CCN(c2nccc3ccccc23)CC1 [Example 1, 2-[2-(4-(1-Isoquinolinyl)-1-piperazinyl)ethyl]-3,4-dihydro-1(2H)-isoquinolinone] |
| 1.6 | O=S1(=O)c2ccccc2CN1CCN1CCN(c2nccc3ccccc23)CC1 [Example 3, 2-[2-(4-(1-Isoquinolinyl)-1-piperazinyl)-ethyl]-2,3-dihydro-1,2-benzisothiazole 1,1-dioxide] |
| 0.6 | O=c1c2ccccc2ccn1CCN1CCN(c2nccc3ccccc23)CC1 [Example 2, 2-[2-(4-(1-Isoquinolinyl)-1-piperazinyl)-ethyl]-1(2H)-isoquinolinone] |
| 2.4 | O=c1ccc2ccccc2n1CCN1CCN(c2nccc3ccccc23)CC1 [Example 7, 1-[2-(4-(1-Isoquinolinyl)-1-piperazinyl)-ethyl]-2(1H)-quinolinone] |
| 0.1 | O=S1(=O)c2ccccc2CN1CCN1CCN(c2cccc3ccccc23)CC1 [Example 8, 2-[2-(4-(1-Naphthyl)-1-piperazinyl)ethyl]-2,3-dihydro-1,2-benzisothiazole 1,1-dioxide] |
